Reference: BindingDB's records for doi:10.7270/Q2V40ST1 (Burnham Center For Chemical Genomics, 2012)

Target: Polyadenylate-binding protein 1 (Homo sapiens, UniProt P11940)
Experiment: PABP1 MLLE–PAM2 interaction inhibitors, dose response, miRNA deadenylation inhibitor project, biochemical, fluorescence polarization, Cy5-PAM2 peptide, secondary (AID 602260)

Sequence of Polyadenylate-binding protein 1 (P11940 whole entry): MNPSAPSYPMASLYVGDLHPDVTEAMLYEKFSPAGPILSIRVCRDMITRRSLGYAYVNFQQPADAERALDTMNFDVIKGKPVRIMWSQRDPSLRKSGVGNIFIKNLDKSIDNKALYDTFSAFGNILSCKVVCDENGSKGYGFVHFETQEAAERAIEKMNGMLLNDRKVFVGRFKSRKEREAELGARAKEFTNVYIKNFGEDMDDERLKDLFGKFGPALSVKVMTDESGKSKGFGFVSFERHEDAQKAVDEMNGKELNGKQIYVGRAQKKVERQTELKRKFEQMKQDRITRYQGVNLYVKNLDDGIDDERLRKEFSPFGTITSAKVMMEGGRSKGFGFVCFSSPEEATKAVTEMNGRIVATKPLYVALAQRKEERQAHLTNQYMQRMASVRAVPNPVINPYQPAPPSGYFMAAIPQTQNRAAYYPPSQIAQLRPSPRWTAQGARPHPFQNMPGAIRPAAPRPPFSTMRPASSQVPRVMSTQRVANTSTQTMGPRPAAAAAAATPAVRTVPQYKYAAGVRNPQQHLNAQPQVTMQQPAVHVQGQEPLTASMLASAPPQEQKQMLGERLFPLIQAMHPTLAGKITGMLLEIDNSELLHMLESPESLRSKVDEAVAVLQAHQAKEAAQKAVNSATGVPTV

IC50	Structure (SMILES)
> 66 µM	CCOC(=O)c1ccc(NC(=O)Cc2sc3ncnn3c2O)cc1
> 66 µM	O=C(O)CSc1cc(O)n(-c2ccc(Cl)c(Cl)c2)c1O
> 66 µM	Cc1ccc(NC(=O)Cc2sc(=O)n(-c3ccccc3)c2O)cc1
> 66 µM	COc1cc2c(cc1OC)C(c1ccccc1O)N(c1cc(O)n(-c3ccccc3)c1O)CC2 (stereo not drawn)
> 66 µM	O=C(Cc1sc(=O)n(-c2ccccc2)c1O)Nc1ccccc1 [2-(2,4-diketo-3-phenyl-thiazolidin-5-yl)-N-phenyl-acetamide]
> 66 µM	CCSc1sccc1C1C2=C(CCCC2=O)N(c2cccnc2)C(=N)C1C#N (stereo not drawn) [2-azanyl-4-(2-ethylsulfanylthiophen-3-yl)-5-oxidanylidene-1-pyridin-3-yl-4,6,7,8-tetrahydroquinoline-3-carbonitrile]
> 66 µM	N#CC1C(=N)C2=C(N3CCCCC3)CCCC2C1(C#N)C#N (stereo not drawn) [3-Amino-4-piperidin-1-yl-5,6,7,7a-tetrahydro-indene-1,1,2-tricarbonitrile]
> 66 µM	CCOc1cc(C2C3=C(CCCC3=O)N=C3CCCC(=O)C32)ccc1OCCO (stereo not drawn) [9-[3-ethoxy-4-(2-hydroxyethoxy)phenyl]-2,3,4,5,6,7,9,10-octahydroacridine-1,8-dione]
> 66 µM	COc1ccc(NC(=O)Cc2sc3ncnn3c2O)cc1 [MLS000115464]
> 66 µM	Cc1cc(C(F)(F)F)nc(SCC(=O)Nc2nc(O)c(C)s2)n1 [N-(5-methyl-4-oxidanylidene-1,3-thiazol-2-yl)-2-[4-methyl-6-(trifluoromethyl)pyrimidin-2-yl]sulfanyl-ethanamide]
> 66 µM	CC(C)C1=NC(=O)NC2CCCCC12 (stereo not drawn) [SMR000060291]
> 66 µM	COc1ccc(C2=Nc3nnnn3C(c3ccc(F)cc3)C2)cc1 (stereo not drawn) [SMR000108015]
> 66 µM	CCOC(=O)CC1=C(C(=O)OCC)C(c2ccc(C)o2)C(C#N)C(=N)O1 (stereo not drawn) [ethyl 6-amino-5-cyano-2-(2-ethoxy-2-oxoethyl)-4-(5-methyl-2-furyl)-4H-pyran-3-carboxylate]
